pIC50: −log10 of the molar value.
What follows are compounds tested against human TRPM8 (Homo sapiens (Human), UniProt Q7Z2W7) (assay: HTS cellular-based calcium assay for human TRPM8 antagonists (FLIPR TETRA)). Conditions: HEK293/hTRPM8 cells, agonist Cooling Agent 10 at EC80, Ca2+ fluorescence.
Sequence of human TRPM8 (Q7Z2W7 whole entry): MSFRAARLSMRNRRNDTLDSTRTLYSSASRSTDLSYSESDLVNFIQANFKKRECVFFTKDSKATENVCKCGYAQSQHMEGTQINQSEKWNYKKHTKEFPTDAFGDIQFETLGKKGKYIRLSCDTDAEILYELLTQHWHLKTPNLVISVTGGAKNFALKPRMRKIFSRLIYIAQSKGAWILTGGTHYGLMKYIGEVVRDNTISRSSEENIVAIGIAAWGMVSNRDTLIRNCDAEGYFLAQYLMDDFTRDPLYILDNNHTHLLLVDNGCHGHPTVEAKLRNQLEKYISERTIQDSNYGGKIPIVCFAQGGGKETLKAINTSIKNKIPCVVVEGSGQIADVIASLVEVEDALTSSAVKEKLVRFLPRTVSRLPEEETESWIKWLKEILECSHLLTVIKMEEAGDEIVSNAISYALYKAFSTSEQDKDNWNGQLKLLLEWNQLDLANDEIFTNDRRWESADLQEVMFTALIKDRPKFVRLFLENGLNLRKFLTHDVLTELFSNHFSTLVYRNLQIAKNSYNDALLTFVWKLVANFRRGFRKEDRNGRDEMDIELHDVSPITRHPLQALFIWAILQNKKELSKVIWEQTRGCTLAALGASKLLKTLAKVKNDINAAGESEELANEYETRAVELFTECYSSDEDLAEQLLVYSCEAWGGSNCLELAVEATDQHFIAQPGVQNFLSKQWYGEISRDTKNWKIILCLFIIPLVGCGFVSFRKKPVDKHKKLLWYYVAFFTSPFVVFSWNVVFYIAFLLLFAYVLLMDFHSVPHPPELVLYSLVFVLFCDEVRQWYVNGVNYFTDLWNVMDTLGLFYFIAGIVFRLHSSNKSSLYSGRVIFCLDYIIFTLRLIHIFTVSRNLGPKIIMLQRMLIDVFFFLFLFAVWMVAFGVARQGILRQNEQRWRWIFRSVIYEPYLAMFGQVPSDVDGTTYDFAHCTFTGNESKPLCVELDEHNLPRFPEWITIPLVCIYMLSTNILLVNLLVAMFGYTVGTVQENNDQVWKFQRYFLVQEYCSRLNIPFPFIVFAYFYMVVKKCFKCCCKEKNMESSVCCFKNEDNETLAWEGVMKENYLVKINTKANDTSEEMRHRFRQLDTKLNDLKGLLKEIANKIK

Row | SMILES | pIC50
1 | CCC(=O)c1sc(-c2cccc(F)c2)nc1O [Compound 1, 1-[2-(3-fluorophenyl)-4-hydroxy-1,3-thiazol-5-yl]propan-1-one] | 7.49
2 | CC(=O)c1sc(-c2cccc(F)c2)nc1O [Compound 4, 1-(2-(3-fluorophenyl)-4-hydroxythiazol-5-yl)ethanone] | 6.02
3 | CCC(=O)c1sc(-c2cccs2)nc1O [Compound 7, 1-[4-hydroxy-2-(thiophen-2-yl)-1,3-thiazol-5-yl]propan-1-one] | 6.22
4 | CCC(=O)c1sc(-c2ccccc2C)nc1O [Compound 9, 1-[4-hydroxy-2-(2-methylphenyl)-1,3-thiazol-5-yl]propan-1-one] | 6.39
5 | CON(C)C(=O)c1sc(-c2ccccc2Br)nc1O [Compound 10, 2-(2-bromophenyl)-4-hydroxy-N-methoxy-N-methyl-1,3-thiazole-5-carboxamide] | 6.36
6 | CCC(=O)c1sc(-c2ccccc2Br)nc1O [Compound 11, 1-[2-(2-bromophenyl)-4-hydroxy-1,3-thiazol-5-yl]propan-1-one] | 6.04
7 | CCC(=O)c1sc(-c2cccc(Br)c2)nc1O [Compound 14, 1-[2-(3-bromophenyl)-4-hydroxy-1,3-thiazol-5-yl]propan-1-one] | 5.76
8 | CCC(=O)c1sc(-c2cccnc2)nc1O [Compound 25, 1-[4-hydroxy-2-(pyridin-3-yl)-1,3-thiazol-5-yl]propan-1-one] | 6.45
9 | CCC(=O)c1sc(-c2ccncc2)nc1O [Compound 26, 1-[4-hydroxy-2-(pyridin-4-yl)-1,3-thiazol-5-yl]propan-1-one] | 6.34
10 | CCC(=O)c1sc(-c2cccc(N)c2)nc1O [Compound 32, 1-[2-(3-aminophenyl)-4-hydroxy-1,3-thiazol-5-yl]propan-1-one] | 6.35
11 | CCC(=O)c1sc(-c2ccc(N)cc2)nc1O [Compound 33, 1-[2-(4-aminophenyl)-4-hydroxy-1,3-thiazol-5-yl]propan-1-one] | 6.20
12 | CCC(=O)c1sc(-c2ccc(NC)cc2)nc1O [Compound 35, 1-{4-hydroxy-2-[4-(methylamino)phenyl]-1,3-thiazol-5-yl}propan-1-one] | 6.10
13 | CC(C)CC(=O)c1sc(-c2cccc(F)c2)nc1O [Compound 38, 1-[2-(3-fluorophenyl)-4-hydroxy-1,3-thiazol-5-yl]-3-methylbutan-1-one] | 6.48
14 | COCC(=O)c1sc(-c2cccc(F)c2)nc1O [Compound 39, 1-[2-(3-fluorophenyl)-4-hydroxy-1,3-thiazol-5-yl]-2-methoxyethanone] | 6.28
15 | CON(C)C(=S)c1sc(-c2cccc(F)c2)nc1O [Compound 41, 2-(3-fluorophenyl)-4-hydroxy-N-methoxy-N-methyl-1,3-thiazole-5-carbothioamide] | 6.41
16 | CC/C(=N\OC)c1sc(-c2cccc(F)c2)nc1O [Compound 42, 2-(3-fluorophenyl)-5-[(1E)—N-methoxypropanimidoyl]-1,3-thiazol-4-ol] | 6.01
17 | CCC(=N)c1sc(-c2cccc(F)c2)nc1O [Compound 43, 2-(3-fluorophenyl)-5-propanimidoyl-1,3-thiazol-4-ol] | 5.92

Further compounds by rising pIC50, results first:

Row | pIC50 | SMILES
18 | 6.49 | CCC(=O)c1sc(-c2ccc(O)cc2)nc1O [Compound 29, 1-[4-hydroxy-2-(4-hydroxyphenyl)-1,3-thiazol-5-yl]propan-1-one]
19 | 6.49 | CCC(=O)c1sc(-c2cccn2C)nc1O [Compound 17, 1-[4-hydroxy-2-(1-methyl-1H-pyrrol-2-yl)-1,3-thiazol-5-yl]propan-1-one]
20 | 6.52 | CCC(=O)c1sc(-c2cnc[nH]2)nc1O [Compound 19, 1-[4-hydroxy-2-(1H-imidazol-5-yl)-1,3-thiazol-5-yl]propan-1-one]
21 | 6.52 | CC(C)C(=O)c1sc(-c2cccc(F)c2)nc1O [Compound 5, 1-[2-(3-fluorophenyl)-4-hydroxy-1,3-thiazol-5-yl]-2-methylpropan-1-one]
22 | 6.63 | CCC(=O)c1sc(-c2ccco2)nc1O [Compound 15, 1-[2-(furan-2-yl)-4-hydroxy-1,3-thiazol-5-yl]propan-1-one]
23 | 6.63 | CCC(=O)c1sc(-c2ccc(C)cc2)nc1O [Compound 31, 1-[4-hydroxy-2-(4-methylphenyl)-1,3-thiazol-5-yl]propan-1-one]
24 | 6.63 | CCC(=S)c1sc(-c2cccc(F)c2)nc1O [Compound 40, 1-[2-(3-fluorophenyl)-4-hydroxy-1,3-thiazol-5-yl]propane-1-thione]
25 | 6.63 | CCC(=O)c1sc(-c2cccc(NC)c2)nc1O [Compound 34, 1-{4-hydroxy-2-[3-(methylamino)phenyl]-1,3-thiazol-5-yl}propan-1-one]
26 | 6.64 | CCC(=O)c1sc(-c2cccc(C)c2)nc1O [Compound 30, 1-[4-hydroxy-2-(3-methylphenyl)-1,3-thiazol-5-yl]propan-1-one]
27 | 6.81 | CON(C)C(=O)c1sc(-c2cccs2)nc1O [Compound 6, 4-hydroxy-N-methoxy-N-methyl-2-(thiophen-2-yl)-1,3-thiazole-5-carboxamide]
28 | 6.84 | CCC(=O)c1sc(-c2ccccn2)nc1O [Compound 27, 1-[4-hydroxy-2-(pyridin-2-yl)-1,3-thiazol-5-yl]propan-1-one]
29 | 6.91 | CCC(=O)c1sc(-c2ccc[nH]2)nc1O [Compound 16, 1-[4-hydroxy-2-(1H-pyrrol-2-yl)-1,3-thiazol-5-yl]propan-1-one]
30 | 6.91 | CCC(=O)c1sc(-c2ccno2)nc1O [Compound 24, 1-[4-hydroxy-2-(1,2-oxazol-5-yl)-1,3-thiazol-5-yl]propan-1-one]
31 | 6.95 | CCC(=O)c1sc(-c2ccccc2O)nc1O [Compound 13, 1-[2-(2-hydroxyphenyl)-4-hydroxy-1,3-thiazol-5-yl]propan-1-one]
32 | 6.95 | CCC(=O)c1sc(-c2cncn2C)nc1O [Compound 18, 1-[4-hydroxy-2-(1-methyl-1H-imidazol-5-yl)-1,3-thiazol-5-yl]propan-1-one]
33 | 7.00 | CCC(=O)c1sc(-c2ncon2)nc1O [Compound 23, 1-[4-hydroxy-2-(1,2,4-oxadiazol-3-yl)-1,3-thiazol-5-yl]propan-1-one]
34 | 7.05 | CCC(=O)c1sc(-c2cnn(C)c2)nc1O [Compound 20, 1-[4-hydroxy-2-(1-methyl-1H-pyrazol-4-yl)-1,3-thiazol-5-yl]propan-1-one]
35 | 7.07 | CON(C)C(=O)c1sc(-c2ccccc2C)nc1O [Compound 8, 4-hydroxy-N-methoxy-N-methyl-2-(2-methylphenyl)-1,3-thiazole-5-carboxamide]
36 | 7.07 | CC(C)CC(=O)c1sc(-c2cccs2)nc1O [Compound 22, 1-[4-hydroxy-2-(thiophen-2-yl)-1,3-thiazol-5-yl]-3-methylbutan-1-one]
37 | 7.19 | CCCC(=O)c1sc(-c2cccs2)nc1O [Compound 21, 1-[4-hydroxy-2-(thiophen-2-yl)-1,3-thiazol-5-yl]butan-1-one]
38 | 7.30 | CCC(=O)c1sc(-c2ccc(F)cc2)nc1O [Compound 36, 1-[2-(4-fluorophenyl)-4-hydroxy-1,3-thiazol-5-yl]propan-1-one]
39 | 7.64 | CCC(=O)c1sc(-c2cccc(O)c2)nc1O [Compound 28, 1-[4-hydroxy-2-(3-hydroxyphenyl)-1,3-thiazol-5-yl]propan-1-one]

From patent US11046662B2, “2-aryl-4-hydroxy-1,3-thiazole derivatives useful as TRPM8-inhibitors in treatment of neuralgia, pain, COPD and asthma” (DOMPÉ FARMACEUTICI S.P.A., priority 2014, dated 2021)
